Measurements from ChEMBL document CHEMBL1275550, “In vitro activity of doripenem, a carbapenem for the treatment of challenging infections caused by gram-negative bacteria, against recent clinical isolates from the United States” (2008).
In brackets after ≈: the same amount, converted by molar mass.

Assays:
Acinetobacter [1] = assay: Antimicrobial activity against imipenem susceptible Acinetobacter assessed as susceptible isolate by broth microdilution method; format: functional
Serratia marcescens [2] = assay: Antimicrobial activity against Ceftazidime susceptible Serratia marcescens assessed as susceptible isolate by broth microdilution method; format: functional
Klebsiella pneumoniae [3] = assay: Antimicrobial activity against ESBL producing Klebsiella pneumoniae assessed as resistant isolate by broth microdilution method; format: functional
Pseudomonas aeruginosa [4] = assay: Antimicrobial activity against Pseudomonas aeruginosa isolated from ICU patient by broth microdilution method; format: functional
Enterobacteriaceae [5] = assay: Antimicrobial activity against ceftazidime-susceptible Enterobacteriaceae assessed as intermediate isolate by broth microdilution method; format: functional
Proteus mirabilis [6] = assay: Antimicrobial activity against Non-ESBL Proteus mirabilis assessed as intermediate isolate by broth microdilution method; format: functional
Acinetobacter [7] = assay: Antimicrobial activity against imipenem non-susceptible Acinetobacter by broth microdilution method; format: functional
Pseudomonas aeruginosa [8] = assay: Antimicrobial activity against Pseudomonas aeruginosa isolated from non-ICU patient by broth microdilution method
Enterobacteriaceae [9] = assay: Antimicrobial activity against Ceftazidime non-susceptible Enterobacteriaceae assessed as susceptible isolate by broth microdilution method; format: functional
Acinetobacter [10] = assay: Antimicrobial activity against imipenem non-susceptible Acinetobacter assessed as resistant isolate by broth microdilution method; format: functional
Enterobacteriaceae [11] = assay: Antimicrobial activity against Ceftazidime non-susceptible Enterobacteriaceae assessed as resistant isolate by broth microdilution method; format: functional
Pseudomonas aeruginosa [12] = assay: Antimicrobial activity against Pseudomonas aeruginosa isolated from non-ICU patient by broth microdilution method; format: functional
Pseudomonas aeruginosa [13] = assay: Antimicrobial activity against Ceftazidime non-susceptible Pseudomonas aeruginosa assessed as resistant isolate by broth microdilution method; format: functional
Acinetobacter [14] = assay: Antimicrobial activity against imipenem non-susceptible Acinetobacter assessed as intermediate isolate by broth microdilution method; format: functional
Pseudomonas aeruginosa [15] = assay: Antimicrobial activity against Ceftazidime susceptible Pseudomonas aeruginosa by broth microdilution method; format: functional
Klebsiella pneumoniae [16] = assay: Antimicrobial activity against ESBL producing Klebsiella pneumoniae assessed as intermediate isolate by broth microdilution method; format: functional
Enterobacteriaceae [17] = assay: Antimicrobial activity against ceftazidime-susceptible Enterobacteriaceae assessed as resistant isolate by broth microdilution method; format: functional
Klebsiella pneumoniae [18] = assay: Antimicrobial activity against ESBL producing Klebsiella pneumoniae assessed as susceptible isolate by broth microdilution method; format: functional
Proteus mirabilis [19] = assay: Antimicrobial activity against ESBL producing Proteus mirabilis assessed as intermediate isolate by broth microdilution method; format: functional
Pseudomonas aeruginosa [20] = assay: Antimicrobial activity against Pseudomonas aeruginosa isolated from ICU patient assessed as susceptible isolate by broth microdilution method
Enterobacteriaceae [21] = assay: Antimicrobial activity against ceftazidime-susceptible Enterobacteriaceae assessed as susceptible isolate by broth microdilution method; format: functional
Citrobacter [22] = assay: Antimicrobial activity against Citrobacter with nonderepressed AmpC beta-lactamsae assessed as susceptible isolate by broth microdilution method; format: functional
Serratia marcescens [23] = assay: Antimicrobial activity against Ceftazidime susceptible Serratia marcescens assessed as intermediate isolate by broth microdilution method; format: functional
Enterobacteriaceae [24] = assay: Antimicrobial activity against Ceftazidime non-susceptible Enterobacteriaceae by broth microdilution method; format: functional
Proteus mirabilis [25] = assay: Antimicrobial activity against ESBL producing Proteus mirabilis by broth microdilution method; format: functional
Pseudomonas aeruginosa [26] = assay: Antimicrobial activity against Ceftazidime non-susceptible Pseudomonas aeruginosa assessed as intermediate isolate by broth microdilution method; format: functional
Pseudomonas aeruginosa [27] = assay: Antimicrobial activity against Pseudomonas aeruginosa isolated from ICU patient assessed as intermediate isolate by broth microdilution method
Citrobacter [28] = assay: Antimicrobial activity against Citrobacter with nonderepressed AmpC beta-lactamsae by broth microdilution method; format: functional
Pseudomonas aeruginosa [29] = assay: Antimicrobial activity against Ceftazidime non-susceptible Pseudomonas aeruginosa assessed as susceptible isolate by broth microdilution method; format: functional
Pseudomonas aeruginosa [30] = assay: Antimicrobial activity against imipenem susceptible Pseudomonas aeruginosa assessed as resistant isolate by broth microdilution method; format: functional
Pseudomonas aeruginosa [31] = assay: Antimicrobial activity against imipenem non-susceptible Pseudomonas aeruginosa assessed as intermediate isolate by broth microdilution method; format: functional
Pseudomonas aeruginosa [32] = assay: Antimicrobial activity against Pseudomonas aeruginosa isolated from patient by broth microdilution method
Pseudomonas aeruginosa [33] = assay: Antimicrobial activity against Ceftazidime susceptible Pseudomonas aeruginosa assessed as susceptible isolate by broth microdilution method; format: functional
Klebsiella pneumoniae [34] = assay: Antimicrobial activity against Non-ESBL Klebsiella pneumoniae assessed as intermediate isolate by broth microdilution method; format: functional
Pseudomonas aeruginosa [35] = assay: Antimicrobial activity against imipenem non-susceptible Pseudomonas aeruginosa assessed as resistant isolate by broth microdilution method; format: functional
Klebsiella pneumoniae [36] = assay: Antimicrobial activity against Non-ESBL Klebsiella pneumoniae by broth microdilution method; format: functional
Serratia marcescens [37] = assay: Antimicrobial activity against Ceftazidime non-susceptible Serratia marcescens by broth microdilution method; format: functional
Escherichia coli [38] = assay: Antimicrobial activity against ESBL producing Escherichia coli assessed as susceptible isolate by broth microdilution method; format: functional
Pseudomonas aeruginosa [39] = assay: Antimicrobial activity against imipenem non-susceptible Pseudomonas aeruginosa by broth microdilution method; format: functional
Acinetobacter [40] = assay: Antimicrobial activity against imipenem non-susceptible Acinetobacter assessed as susceptible isolate by broth microdilution method; format: functional
Pseudomonas aeruginosa [41] = assay: Antimicrobial activity against Ceftazidime susceptible Pseudomonas aeruginosa assessed as intermediate isolate by broth microdilution method; format: functional
Proteus mirabilis [42] = assay: Antimicrobial activity against ESBL producing Proteus mirabilis assessed as susceptible isolate by broth microdilution method; format: functional
Proteus mirabilis [43] = assay: Antimicrobial activity against Non-ESBL Proteus mirabilis by broth microdilution method; format: functional
Pseudomonas aeruginosa [44] = assay: Antimicrobial activity against Ceftazidime susceptible Pseudomonas aeruginosa assessed as resistant isolate by broth microdilution method; format: functional
Citrobacter [45] = assay: Antimicrobial activity against Citrobacter with derepressed AmpC beta-lactamsae by broth microdilution method; format: functional
Acinetobacter [46] = assay: Antimicrobial activity against imipenem susceptible Acinetobacter assessed as resistant isolate by broth microdilution method; format: functional
Klebsiella pneumoniae [47] = assay: Antimicrobial activity against Non-ESBL Klebsiella pneumoniae assessed as susceptible isolate by broth microdilution method; format: functional
Citrobacter [48] = assay: Antimicrobial activity against Citrobacter with nonderepressed AmpC beta-lactamsae assessed as intermediate isolate by broth microdilution method; format: functional
Klebsiella pneumoniae [49] = assay: Antimicrobial activity against ESBL producing Klebsiella pneumoniae by broth microdilution method; format: functional
Pseudomonas aeruginosa [50] = assay: Antimicrobial activity against Pseudomonas aeruginosa isolated from non-ICU patient assessed as resistant isolate by broth microdilution method
Acinetobacter [51] = assay: Antimicrobial activity against imipenem susceptible Acinetobacter by broth microdilution method; format: functional
Escherichia coli [52] = assay: Antimicrobial activity against ESBL producing Escherichia coli assessed as intermediate isolate by broth microdilution method; format: functional
Acinetobacter [53] = assay: Antimicrobial activity against imipenem susceptible Acinetobacter assessed as intermediate isolate by broth microdilution method; format: functional
Proteus mirabilis [54] = assay: Antimicrobial activity against Non-ESBL Proteus mirabilis assessed as susceptible isolate by broth microdilution method; format: functional
Escherichia coli [55] = assay: Antimicrobial activity against ESBL producing Escherichia coli assessed as resistant isolate by broth microdilution method; format: functional
Pseudomonas aeruginosa [56] = assay: Antimicrobial activity against imipenem non-susceptible Pseudomonas aeruginosa assessed as susceptible isolate by broth microdilution method; format: functional
Pseudomonas aeruginosa [57] = assay: Antimicrobial activity against imipenem susceptible Pseudomonas aeruginosa assessed as susceptible isolate by broth microdilution method; format: functional
Escherichia coli [58] = assay: Antimicrobial activity against ESBL producing Escherichia coli by broth microdilution method; format: functional
Pseudomonas aeruginosa [59] = assay: Antimicrobial activity against imipenem susceptible Pseudomonas aeruginosa assessed as intermediate isolate by broth microdilution method; format: functional
Pseudomonas aeruginosa [60] = assay: Antimicrobial activity against Pseudomonas aeruginosa isolated from ICU patient assessed as resistant isolate by broth microdilution method
Escherichia coli [61] = assay: Antimicrobial activity against Non-ESBL Escherichia coli assessed as susceptible isolate by broth microdilution method; format: functional
Serratia marcescens [62] = assay: Antimicrobial activity against Ceftazidime non-susceptible Serratia marcescens assessed as susceptible isolate by broth microdilution method; format: functional
Citrobacter [63] = assay: Antimicrobial activity against Citrobacter with derepressed AmpC beta-lactamsae assessed as susceptible isolate by broth microdilution method; format: functional
Enterobacteriaceae [64] = assay: Antimicrobial activity against Ceftazidime non-susceptible Enterobacteriaceae assessed as intermediate isolate by broth microdilution method; format: functional
Citrobacter [65] = assay: Antimicrobial activity against Citrobacter with derepressed AmpC beta-lactamsae assessed as intermediate isolate by broth microdilution method; format: functional
Escherichia coli [66] = assay: Antimicrobial activity against Non-ESBL Escherichia coli assessed as intermediate isolate by broth microdilution method; format: functional
Serratia marcescens [67] = assay: Antimicrobial activity against Ceftazidime non-susceptible Serratia marcescens assessed as intermediate isolate by broth microdilution method; format: functional

In the case of CO/N=C(\C(=O)N[C@@H]1C(=O)N2C(C(=O)[O-])=C(C[N+]3(C)CCCC3)CS[C@H]12)c1csc(N)n1, the Activity (Acinetobacter [1]) is reported as 73.1%, the Activity (Serratia marcescens [2]) is reported as 100% and the Activity (Klebsiella pneumoniae [3]) is reported as 29.5%. The MIC50 (Pseudomonas aeruginosa [4]) was 4 µg/mL (≈ 8.32 µM), the MIC90 (Pseudomonas aeruginosa [4]) was 16 µg/mL (≈ 33.3 µM) and the Activity (Enterobacteriaceae [5]) was 0%. The Activity (Proteus mirabilis [6]) was 0.2%, the MIC50 (Acinetobacter [7]) was 32 µg/mL (≈ 66.6 µM) and the MIC90 (Acinetobacter [7]) was greater than 32 µg/mL. The Activity (Pseudomonas aeruginosa [8]) was 86.8%, the Activity (Enterobacteriaceae [9]) was 82.4% and the Activity (Acinetobacter [10]) was 64.7%. For the same molecule, the Activity (Enterobacteriaceae [11]) was 12%, the MIC50 (Pseudomonas aeruginosa [12]) was 4 µg/mL (≈ 8.32 µM) and the MIC90 (Pseudomonas aeruginosa [12]) was 16 µg/mL (≈ 33.3 µM). It also gave an Activity (Pseudomonas aeruginosa [13]) of 26.4%, an Activity (Acinetobacter [14]) of 33.3% and an MIC50 (Pseudomonas aeruginosa [15]) of 2 µg/mL (≈ 4.16 µM). It also gave an MIC90 (Pseudomonas aeruginosa [15]) of 8 µg/mL (≈ 16.6 µM), an Activity (Klebsiella pneumoniae [16]) of 2.3% and an Activity (Enterobacteriaceae [17]) of 0.1%. The Activity (Klebsiella pneumoniae [18]) was 68.2%, the Activity (Proteus mirabilis [19]) was 0% and the Activity (Pseudomonas aeruginosa [20]) was 79.9%. For the same molecule, the Activity (Enterobacteriaceae [21]) was 99.8%, the Activity (Citrobacter [22]) was 99.6% and the Activity (Serratia marcescens [23]) was 0%. The MIC50 (Enterobacteriaceae [24]) was 2 µg/mL (≈ 4.16 µM), the MIC90 (Enterobacteriaceae [24]) was 32 µg/mL (≈ 66.6 µM) and the MIC (Proteus mirabilis [25]) was 1 µg/mL (≈ 2.08 µM). The Activity (Pseudomonas aeruginosa [26]) was 48.2%, the Activity (Pseudomonas aeruginosa [27]) was 13.7% and the MIC50 (Citrobacter [28]) was 0.03 µg/mL (≈ 0.0624 µM). For the same molecule, the MIC90 (Citrobacter [28]) was 0.06 µg/mL (≈ 0.125 µM), the Activity (Pseudomonas aeruginosa [29]) was 25.5% and the Activity (Pseudomonas aeruginosa [30]) was 2.2%. For the same molecule, the Activity (Pseudomonas aeruginosa [31]) was 16.9%, the Activity (Pseudomonas aeruginosa [32]) was 8.2% and the Activity (Pseudomonas aeruginosa [33]) was 95.2%. The Activity (Klebsiella pneumoniae [34]) was 0.2%, the Activity (Pseudomonas aeruginosa [35]) was 10.6% and the MIC50 (Klebsiella pneumoniae [36]) was 0.03 µg/mL (≈ 0.0624 µM). For the same molecule, the MIC90 (Klebsiella pneumoniae [36]) was 0.06 µg/mL (≈ 0.125 µM), the MIC50 (Serratia marcescens [37]) was 4 µg/mL (≈ 8.32 µM) and the MIC90 (Serratia marcescens [37]) was 16 µg/mL (≈ 33.3 µM). The Activity (Escherichia coli [38]) was 40%, the MIC50 (Pseudomonas aeruginosa [39]) was 8 µg/mL (≈ 16.6 µM) and the MIC90 (Pseudomonas aeruginosa [39]) was 32 µg/mL (≈ 66.6 µM). The Activity (Acinetobacter [40]) was 2%, the Activity (Pseudomonas aeruginosa [41]) was 3.8% and the Activity (Proteus mirabilis [42]) was 100%. For the same molecule, the MIC50 (Proteus mirabilis [43]) was 0.03 µg/mL (≈ 0.0624 µM), the MIC90 (Proteus mirabilis [43]) was 0.06 µg/mL (≈ 0.125 µM) and the Activity (Pseudomonas aeruginosa [44]) was 1%. For the same molecule, the MIC50 (Citrobacter [45]) was 1 µg/mL (≈ 2.08 µM), the MIC90 (Citrobacter [45]) was 2 µg/mL (≈ 4.16 µM) and the Activity (Acinetobacter [46]) was 15.1%. It also gave an Activity (Klebsiella pneumoniae [47]) of 99.7%, an Activity (Citrobacter [48]) of 0.2% and an MIC50 (Klebsiella pneumoniae [49]) of 8 µg/mL (≈ 16.6 µM). It also gave an MIC90 (Klebsiella pneumoniae [49]) greater than 32 µg/mL, an Activity (Pseudomonas aeruginosa [50]) of 5.1% and an MIC50 (Acinetobacter [51]) of 4 µg/mL (≈ 8.32 µM). The MIC90 (Acinetobacter [51]) was 32 µg/mL (≈ 66.6 µM), the Activity (Escherichia coli [52]) was 3.3% and the Activity (Acinetobacter [53]) was 11.8%. The Activity (Proteus mirabilis [54]) was 99.7%, the Activity (Escherichia coli [55]) was 56.7% and the Activity (Pseudomonas aeruginosa [56]) was 72.5%. The Activity (Pseudomonas aeruginosa [57]) was 90.7%, the MIC50 (Escherichia coli [58]) was 32 µg/mL (≈ 66.6 µM) and the MIC90 (Escherichia coli [58]) was greater than 32 µg/mL. The Activity (Pseudomonas aeruginosa [59]) was 7%, the Activity (Pseudomonas aeruginosa [60]) was 6.5% and the Activity (Escherichia coli [61]) was 99.8%. The Activity (Serratia marcescens [62]) was 80%, the Activity (Citrobacter [63]) was 100% and the Activity (Enterobacteriaceae [64]) was 5.6%. The Activity (Citrobacter [65]) was 0%, the Activity (Escherichia coli [66]) was 0.1% and the Activity (Serratia marcescens [67]) was 10%.
